These results are taken from publication PMC11413853, “Discovery of VU6007496: Challenges in the Development of an M1 Positive Allosteric Modulator Backup Candidate” (ACS Chemical Neuroscience, 2024).

Where two headings read alike, the source gives them in different places. Some results are limits rather than exact numbers.

One data set has as its system cardiac ion channels. Kind of data set: Electrophysiology panel of cardiac ion channels (summary). The format is cell-based. The settings on record: 10 μM; whole panel. The source says:
In a 4-strain Ames assay, with and without S9, both 11 and 12 were negative.
Table S2. Effects of VU6007496 on Ion Channel Current (Charles River Study 200609.WVN)
Ion Channel Conc Mean % Standard Standard n Individual Data
(μM) Inhibition Deviation Error Points (% Inhibition)

A short description of data set [1]: Plasma protein binding, cyno. The settings on record: cynomolgus monkey, pH 7.4, read-out: fu,plasma cyno. The format is in vitro ADME. On the procedure: Plasma protein binding and Brain homogenate binding: Determination of fraction unbound (f u) in plasma was conducted in vitro via equilibrium dialysis using HTDialysis (HTD) membrane plates. The top half of the plate was filled with 100 uL of Dubelco’s Phosphate Buffered Saline, pH 7.4 (DPBS). Compounds were diluted into plasma from each species (5 µM final concentration), which was aliquoted in triplicate to the ‘bottom half’ of the prepared HTD plate wells. The HTD plate was sealed and incubated for 6 hours at 37 °C. Following incubation, each well (both top and bottom halves) were transferred (20 µL) to the corresponding wells of a 96-shallow-well (V-bottom) plate. […]
The unbound fraction (f u) was calculated following the equation below, and mean values for each species were calculated from 3 replicates.
A similar approach was used to determine the degree of brain homogenate binding, which employed the same methodology and procedure with the following modifications: 1) a final compound concentration of 1 μM was used, 2) naïve rat brains were homogenized in DPBS (1:3 composition of brain: DPBS, w/w) using a Mini-Bead Beater™ machine in order to obtain brain homogenate, which was then treated in the same manner as the plasma samples in the previously described plasma protein binding assay. Fraction unbound for both plasma and brain samples was determined using Equation 4. […]

A further data set concerns the target T1, rat M1 (Rattus norvegicus, UniProt P08482).
T1 construct: expressed in transfected cells; host or cells: CHO (stated in general for all functional cell-based assays)
T1 sequence (P08482 1-460): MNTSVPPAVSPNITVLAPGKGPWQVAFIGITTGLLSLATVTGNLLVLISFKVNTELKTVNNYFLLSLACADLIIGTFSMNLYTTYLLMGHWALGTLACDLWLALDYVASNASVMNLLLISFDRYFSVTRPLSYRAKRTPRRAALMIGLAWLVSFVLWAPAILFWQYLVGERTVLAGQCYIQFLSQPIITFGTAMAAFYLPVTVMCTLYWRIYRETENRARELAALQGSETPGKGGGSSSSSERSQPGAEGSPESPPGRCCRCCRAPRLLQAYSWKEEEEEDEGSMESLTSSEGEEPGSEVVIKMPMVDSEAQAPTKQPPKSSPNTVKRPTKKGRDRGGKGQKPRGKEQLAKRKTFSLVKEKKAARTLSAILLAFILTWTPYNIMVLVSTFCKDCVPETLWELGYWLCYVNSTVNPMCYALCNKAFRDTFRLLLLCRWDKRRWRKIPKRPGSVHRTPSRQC
Kind of data set: Calcium mobilization assay, rat M1 (agonist and PAM modes). The conditions noted are these: for rM1 PAM AChmax (%) / rM1 Agonist AChmax (%): % ACh max. The format is cell-based. For orientation: Calcium flux is commonly read through the fluorescence of an indicator in the cells.

[2] abbreviates: PAM mode, read-out: rM1 PAM EC50.
The mark [3] stands for this setting: agonist mode, read-out: rM1 Agonist EC50.

Usually EC50 stands for the concentration needed to bring the measured effect to its halfway point. Turning to `Cn1ccc(-c2ccc(Cc3cc(C(=O)NC4CCOCC4)nc4ccn(C)c34)cc2)n1` [compound 11], the “inhibition of cardiac ion channels” value with cardiac ion channels is below 17%. In addition, the fraction unbound at 6 h, 5 µM in data set [1] stood at 0.026. The “rM1 PAM AChmax (%)” value at rat M1 (PAM mode) is on record as 91%. Moreover, the results for the half-maximal effective concentration (EC50) on rat M1 (setting [2]) and at rat M1 (setting [3]) were 0.094 µM and 7.34 µM, respectively. At rat M1 (agonist mode), the “rM1 Agonist AChmax (%)” value is on record as 36%.
Consider `Cn1ccc(-c2ccc(Cc3cc(C(=O)NC4CCOCC4)nc4ccsc34)cc2)n1` [compound 12], for which the “inhibition of cardiac ion channels” value with cardiac ion channels is below 17%. Besides, the fraction unbound at 6 h, 5 µM in data set [1] was 0.009. The “rM1 PAM AChmax (%)” value at rat M1 (PAM mode) is reported as 90%. Further, the concentration for a half-maximal effect (EC50) at rat M1 (setting [2]) is 0.063 µM; at rat M1 (setting [3]), 4.35 µM. Moreover, the “rM1 Agonist AChmax (%)” value on rat M1 (agonist mode) is given as 32%.
`Cn1ccc2nc(C(=O)NC3CCOCC3)cc(Cc3ccc(-c4cc[nH]n4)cc3)c21` [compound 24]: the “rM1 PAM AChmax (%)” value at rat M1 (PAM mode) came to 89%. In addition, the 50% effective concentration (EC50) is 0.056 µM on rat M1 (setting [2]) and 3.1 µM on rat M1 (agonist mode, read-out: rat M1 agonism EC50). For the same compound, the “rM1 Agonist AChmax (%)” value at rat M1 (agonist mode) stood at 48%.
